Columns and labels:
Assay in all cases: relative viability (nuclei count vs DMSO), 5 days (fraction); higher = more cells survive
[1] = compound: CCN(CC)CCNC(=O)c1c(C)[nH]c(/C=C2\C(=O)Nc3ccc(F)cc32)c1C [Sunitinib] + C[C@]1(O)C[C@@H](c2nc(-c3ccc4ccc(-c5ccccc5)nc4c3)c3c(N)nccn32)C1 [Linsitinib] (partner 1 µM)
Summary of the method: (§1)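 Nuclei were stained with Hoechst during a one-step fixation (final 0.05% Triton X-100, 1% formaldehyde, 1 ug/ml Hoechst) carried out 5 days after dosing, then counted on 4× images. The cells, lung cancer lines in 1536-well plates, had been dosed by pin tool the day after seeding with one drug alone or a fixed anchor-drug dose plus five library-drug doses (not always all listed) in √10 steps. Relative viability is the nuclei count in treated wells divided by that in vehicle wells, and each value is the median of duplicate plates.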

[2] = compound: CCN(CC)CCNC(=O)c1c(C)[nH]c(/C=C2\C(=O)Nc3ccc(F)cc32)c1C [Sunitinib] + CC1(C)CCC(c2ccc(Cl)cc2)=C(CN2CCN(c3ccc(C(=O)NS(=O)(=O)c4ccc(N[C@H](CCN5CCOCC5)CSc5ccccc5)c(S(=O)(=O)C(F)(F)F)c4)cc3)CC2)C1 [Navitoclax] (partner 0.5 µM)
Summary of the method: as §1

[3] = compound: CCN(CC)CCNC(=O)c1c(C)[nH]c(/C=C2\C(=O)Nc3ccc(F)cc32)c1C [Sunitinib] + CCNC(=O)c1noc(-c2cc(C(C)C)c(O)cc2O)c1-c1ccc(CN2CCOCC2)cc1 [Luminespib] (partner 0.01 µM)
Summary of the method: as §1

[4] = compound: CCN(CC)CCNC(=O)c1c(C)[nH]c(/C=C2\C(=O)Nc3ccc(F)cc32)c1C [Sunitinib] + COc1cc2c(Oc3ccc(NC(=O)C4(C(=O)Nc5ccc(F)cc5)CC4)cc3F)ccnc2cc1OCCCN1CCOCC1 [Foretinib] (partner 0.25 µM)
Summary of the method: as §1

Cell Line | relative viability ([1]; first compound 0.02 µM) | relative viability ([1]; first compound 0.06325 µM) | relative viability ([1]; first compound 0.2 µM) | relative viability ([1]; first compound 0.6325 µM) | relative viability ([1]; first compound 2 µM) | relative viability ([2]; first compound 0.02 µM) | relative viability ([2]; first compound 0.06325 µM) | relative viability ([2]; first compound 0.2 µM) | relative viability ([2]; first compound 0.6325 µM) | relative viability ([2]; first compound 2 µM) | relative viability ([3]; first compound 0.02 µM) | relative viability ([3]; first compound 0.06325 µM) | relative viability ([3]; first compound 0.2 µM) | relative viability ([3]; first compound 0.6325 µM) | relative viability ([3]; first compound 2 µM) | relative viability ([4]; first compound 0.02 µM) | relative viability ([4]; first compound 0.06325 µM) | relative viability ([4]; first compound 0.2 µM) | relative viability ([4]; first compound 0.6325 µM) | relative viability ([4]; first compound 2 µM)
201T | 1 | 0.941 | 1.06 | 1.09 | 1.04 | 1.19 | 1.18 | 1.21 | 1.18 | 1.2 | 1.05 | 1.05 | 1.05 | 1.08 | 1.03 | 1.01 | 1.1 | 1.22 | 1.17 | 1.01
A549 | 0.563 | 0.638 | 0.669 | 0.716 | 0.579 | 1.16 | 1.3 | 1.36 | – | 1.07 | – | – | – | – | – | 1.06 | 0.951 | 1.09 | 1.05 | 0.974
A-427 | 1.1 | 1.18 | 1.12 | 1.15 | 1.12 | 0.954 | 0.987 | 0.999 | 1 | 1.12 | 0.923 | 1.08 | 1.13 | – | 0.903 | 1.03 | 1.12 | 1.08 | 1.1 | 1.11
ABC-1 | 1.03 | 0.766 | 0.855 | 0.923 | 0.718 | – | – | – | – | – | 0.407 | 0.609 | 0.533 | 0.622 | 0.861 | 1.01 | 1.07 | 1.3 | 1.26 | 1
BEN | – | 0.862 | 1.07 | 0.951 | 0.896 | 0.0567 | 0.0707 | 0.072 | 0.0591 | 0.0799 | 0.414 | 0.453 | 0.396 | 0.53 | 0.333 | 0.598 | 0.704 | 0.576 | 0.665 | 0.644
CAL-12T | 0.807 | 0.82 | 1.2 | 1.06 | 1.01 | 1.18 | 1.32 | 1.44 | 1.36 | 1.36 | 0.364 | 0.41 | 0.385 | 0.369 | 0.203 | 1.07 | 1.27 | 1.32 | 1.03 | 1.28
COR-L23 | 0.902 | 1.1 | 1 | 1.02 | 0.999 | 0.966 | 1.08 | 1.04 | 1.21 | 1.15 | 0.647 | 0.658 | 0.881 | 0.831 | 0.57 | 0.972 | 0.945 | 1.14 | 0.961 | 0.969
COR-L 105 | 1.02 | 0.994 | 0.839 | 1.15 | 1.03 | 0.752 | 0.868 | 0.832 | 0.921 | 0.959 | 0.665 | 0.706 | 0.744 | 0.914 | 0.686 | 1.07 | 1.22 | 0.952 | 1.12 | 1.12
ChaGo-K-1 | – | – | – | – | – | 0.911 | 1.02 | 0.978 | 0.914 | 0.936 | 0.587 | 0.662 | 0.784 | 0.709 | 0.724 | 0.852 | 0.906 | 1 | 0.914 | 0.869
EKVX | 1.07 | 1.04 | 1.18 | 1.12 | 1.06 | 0.608 | 0.595 | 1.13 | – | 0.968 | 0.811 | 0.918 | 0.747 | 0.942 | 0.936 | 0.739 | 0.752 | 0.918 | 1.3 | 0.892
EMC-BAC-2 | 0.769 | 0.817 | 0.896 | 0.865 | 0.778 | 1.15 | – | 1.31 | 1.09 | 1.22 | 1.11 | 1.2 | 1.11 | 1.16 | 1.14 | 0.973 | 1.08 | 1.15 | 1.07 | 0.969
EPLC-272H | 1.27 | 1.1 | 1.15 | 1.09 | 0.93 | 1.09 | 1.2 | 1.38 | 1.12 | 0.921 | 0.364 | 0.38 | 0.561 | 0.582 | 0.262 | 0.702 | 0.65 | – | 0.771 | 0.637
H3255 | 0.884 | 1.02 | – | 1.01 | 1.03 | 0.477 | 0.52 | 0.634 | 0.548 | 0.519 | 0.944 | 1.03 | – | 1.05 | 0.952 | 0.782 | 0.573 | 0.819 | 0.861 | 1.01
HARA | 0.948 | 0.978 | 1.14 | 0.956 | 0.858 | 1.05 | 1.18 | 1.16 | 1.18 | 1.2 | 0.67 | 0.819 | 0.536 | 0.882 | 0.651 | 0.857 | 1.13 | 0.97 | 0.991 | 0.868
